Assay results reported in patent US11040035B2, “3-oxo-2,6-diphenyl-2,3-dihydropyridazine-4-carboxamides” (BAYER PHARMA AKTIENGESELLSCHAFT, priority 2016, dated 2021).

Legend:
[1] = biological target: T1, AHR (Homo sapiens, UniProt P35869); experiment: In vitro assay 2: agonism in human cell line (transactivation assay)
T1 sequence (P35869 11-848): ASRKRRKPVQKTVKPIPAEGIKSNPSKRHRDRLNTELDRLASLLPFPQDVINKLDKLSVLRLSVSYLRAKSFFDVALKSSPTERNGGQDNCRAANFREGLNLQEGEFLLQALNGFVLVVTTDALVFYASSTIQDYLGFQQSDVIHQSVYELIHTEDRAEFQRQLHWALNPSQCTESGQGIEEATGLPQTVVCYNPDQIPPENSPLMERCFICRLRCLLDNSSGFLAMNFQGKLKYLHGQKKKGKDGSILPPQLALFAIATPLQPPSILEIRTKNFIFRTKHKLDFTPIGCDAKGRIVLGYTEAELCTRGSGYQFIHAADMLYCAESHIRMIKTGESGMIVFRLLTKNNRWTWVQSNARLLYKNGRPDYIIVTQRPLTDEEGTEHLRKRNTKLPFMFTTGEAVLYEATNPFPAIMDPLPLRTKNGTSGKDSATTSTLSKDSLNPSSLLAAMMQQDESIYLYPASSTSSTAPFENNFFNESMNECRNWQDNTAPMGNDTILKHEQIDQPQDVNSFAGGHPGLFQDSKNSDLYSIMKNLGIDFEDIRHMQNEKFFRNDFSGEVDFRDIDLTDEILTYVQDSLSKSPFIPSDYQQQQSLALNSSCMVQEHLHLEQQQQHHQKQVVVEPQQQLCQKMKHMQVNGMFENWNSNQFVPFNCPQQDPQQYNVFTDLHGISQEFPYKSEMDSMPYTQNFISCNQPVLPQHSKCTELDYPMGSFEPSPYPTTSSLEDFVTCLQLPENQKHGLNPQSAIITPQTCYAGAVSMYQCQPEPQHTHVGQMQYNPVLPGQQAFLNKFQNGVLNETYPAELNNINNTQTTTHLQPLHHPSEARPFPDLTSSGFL

[2] = biological target: T1, AHR; experiment: In vitro assay 1: antagonism in human cell line (transactivation assay, kynurenic acid prestimulated); details: Assay 1: AHR-luc Hum Antagonism IC50 [M], 150 μM kynurenic acid, 20 hours, firefly luciferase
[3] = Assay 2: AHR-luc Hum Agonism IC50 [M], no kynurenic acid, 20 hours, firefly luciferase
[4] = read-out: Assay 2: AHR-luc Hum Agonism IC50, no kynurenic acid, 20 hours, firefly luciferase

IC50 [1, 3] | IC50 [2] | IC50 [1, 4] | SMILES
> 2e-05 M | 1.91e-07 M |  | O=C(NCC(O)C(F)(F)F)c1cc(-c2ccc(Cl)c(F)c2)nn(-c2cccc(F)c2)c1=O (single isomer, unassigned) [Example 283, 6-(4-chloro-3-fluorophenyl)-2-(3-fluorophenyl)-3-oxo-N-(3,3,3-trifluoro-2-hydroxypropyl)-2,3-dihydropyridazine-4-carboxamide]
 | 8.39e-07 M | > 2e-05 M | O=C(NCC(O)C(F)(F)F)c1cc(-c2ccc(Cl)c(F)c2)nn(-c2cccc(F)c2)c1=O (single isomer, unassigned) [Example 284, 6-(4-chloro-3-fluorophenyl)-2-(3-fluorophenyl)-3-oxo-N-(3,3,3-trifluoro-2-hydroxypropyl)-2,3-dihydropyridazine-4-carboxamide]
> 2e-05 M | 3.09e-07 M |  | O=C(NC(CO)C1CCOC1)c1cc(-c2ccc(Cl)c(F)c2)nn(-c2cccc(F)c2)c1=O (single isomer, unassigned) [Example 292, 6-(4-Chloro-3-fluorophenyl)-2-(3-fluorophenyl)-N-[2-hydroxy-1-(tetrahydrofuran-3-yl)ethyl]-3-oxo-2,3-dihydropyridazine-4-carboxamide]
 | 6.17e-07 M | > 2e-05 M | O=C(NC(CO)C1CCOC1)c1cc(-c2ccc(Cl)c(F)c2)nn(-c2cccc(F)c2)c1=O (single isomer, unassigned) [Example 294, 6-(4-Chloro-3-fluorophenyl)-2-(3-fluorophenyl)-N-[2-hydroxy-1-(tetrahydrofuran-3-yl)ethyl]-3-oxo-2,3-dihydropyridazine-4-carboxamide]
 | 8.3e-07 M | > 2e-05 M | O=C(NC(CO)C1CCOC1)c1cc(-c2ccc(Cl)c(F)c2)nn(-c2cccc(F)c2)c1=O (single isomer, unassigned) [Example 295, 6-(4-Chloro-3-fluorophenyl)-2-(3-fluorophenyl)-N-[2-hydroxy-1-(tetrahydrofuran-3-yl)ethyl]-3-oxo-2,3-dihydropyridazine-4-carboxamide]
> 2e-05 M | 3.7e-07 M |  | O=C(NC(CO)C1CCCO1)c1cc(-c2ccc(Cl)cc2)nn(-c2cccc(F)c2)c1=O (single isomer, unassigned) [Example 316, 1,4-anhydro-5-({[6-(4-chlorophenyl)-2-(3-fluorophenyl)-3-oxo-2,3-dihydropyridazin-4-yl]carbonyl}amino)-2,3,5-trideoxyhexitol]
> 2e-05 M | 4.59e-08 M |  | O=C(NC(CO)C1CCCO1)c1cc(-c2ccc(C(F)(F)F)cc2)nn(-c2cccc(F)c2)c1=O (single isomer, unassigned) [Example 339, 1,4-anhydro-2,3,5-trideoxy-5-[({2-(3-fluorophenyl)-3-oxo-6-[4-(trifluoromethyl)phenyl]-2,3-dihydropyridazin-4-yl}carbonyl)amino]hexitol]
 | 2.67e-08 M | > 2e-05 M | CC(NC(=O)c1cc(-c2ccc(Cl)cc2)nn(-c2cccc(F)c2)c1=O)C(O)CO (single isomer, unassigned) [Example 359, 6-(4-chlorophenyl)-N-(3,4-dihydroxybutan-2-yl)-2-(3-fluorophenyl)-3-oxo-2,3-dihydropyridazine-4-carboxamide]
 | 1.39e-08 M | > 2e-05 M | CC(NC(=O)c1cc(-c2ccc(Cl)cc2)nn(-c2cccc(F)c2)c1=O)C(O)CO (single isomer, unassigned) [Example 360, 6-(4-chlorophenyl)-N-(3,4-dihydroxybutan-2-yl)-2-(3-fluorophenyl)-3-oxo-2,3-dihydropyridazine-4-carboxamide]

More lines, now with the values behind:

SMILES | IC50 [1, 3] | IC50 [2] | IC50 [1, 4]
CC(O)C(C)NC(=O)c1cc(-c2ccc(OC(F)(F)F)cc2)nn(-c2cccc(F)c2)c1=O (single isomer, unassigned) [Example 180, 2-(3-Fluorophenyl)-N-(3-hydroxybutan-2-yl)-3-oxo-6-[4-(trifluoromethoxy)phenyl]-2,3-dihydropyridazine-4-carboxamide] | > 2e-05 M | 1.24e-07 M | 
CC(O)C(NC(=O)c1cc(-c2ccc(Cl)cc2)nn(-c2cccc(F)c2)c1=O)C(F)(F)F (single isomer, unassigned) [Example 199, Isomer no. 2 of 6-(4-chlorophenyl)-2-(3-fluorophenyl)-3-oxo-N-(1,1,1-trifluoro-3-hydroxybutan-2-yl)-2,3-dihydropyridazine-4-carboxamide] |  | 5.84e-07 M | > 2e-05 M
CC(NC(=O)c1cc(-c2ccc(C(F)(F)F)cc2)nn(-c2cccc(F)c2)c1=O)C(O)C(F)(F)F (single isomer, unassigned) [Example 269, Isomer no. 2 of 2-(3-fluorophenyl)-3-oxo-N-(4,4,4-trifluoro-3-hydroxybutan-2-yl)-6-[4-(trifluoromethyl)phenyl]-2,3-dihydropyridazine-4-carboxamide] | 3.85e-09 M | > 2e-05 M | 
O=C(N[C@@H]1CCCC(F)(F)[C@H]1O)c1cc(-c2ccc(Cl)cc2)nn(-c2cccc(F)c2)c1=O (single isomer, unassigned) [Example 276, 6-(4-Chlorophenyl)-N-[(trans)-3,3-difluoro-2-hydroxycyclohexyl]-2-(3-fluorophenyl)-3-oxo-2,3-dihydropyridazine-4-carboxamide] |  | 1.45e-07 M | > 2e-05 M
CC(C)(O)C(NC(=O)c1cc(-c2ccc(Cl)cc2)nn(-c2cccc(F)c2)c1=O)C(F)(F)F (single isomer, unassigned) [Example 278, 6-(4-Chlorophenyl)-2-(3-fluorophenyl)-3-oxo-N-(1,1,1-trifluoro-3-hydroxy-3-methylbutan-2-yl)-2,3-dihydropyridazine-4-carboxamide] | > 2e-05 M | 2.05e-07 M | 
O=C(NC[C@@H](O)C(F)(F)F)c1cc(-c2ccc(Cl)c(Cl)c2)nn(-c2cccc(F)c2)c1=O (single isomer, unassigned) [Example 299, 6-(3,4-Dichlorophenyl)-2-(3-fluorophenyl)-3-oxo-N-(3,3,3-trifluoro-2-hydroxypropyl)-2,3-dihydropyridazine-4-carboxamide] | > 2e-05 M | 7.42e-07 M | 
O=C(NCC(O)C(F)(F)F)c1cc(-c2ccc(Cl)c(Cl)c2)nn(-c2cccc(F)c2)c1=O (single isomer, unassigned) [Example 308, 6-(3,4-Dichlorophenyl)-2-(3-fluorophenyl)-3-oxo-N-(3,3,3-trifluoro-2-hydroxypropyl)-2,3-dihydropyridazine-4-carboxamide] | > 2e-05 M | 1.77e-07 M | 
C[C@@H](O)CCNC(=O)c1cc(-c2ccc(C(F)(F)F)cc2)nn(-c2cccc(F)c2)c1=O (single isomer, unassigned) [Example 330] | > 2e-05 M | 1.21e-07 M | 
O=C(N[C@H]1CC[C@@H]1O)c1cc(-c2ccc(Cl)cc2)nn(-c2cccc(F)c2)c1=O (single isomer, unassigned) [Example 335, (−)-6-(4-chlorophenyl)-2-(3-fluorophenyl)-N-(trans-2-hydroxycyclobutyl)-3-oxo-2,3-dihydropyridazine-4-carboxamide] | > 2e-05 M | 4.05e-07 M | 
CC(NC(=O)c1cc(-c2ccc(Cl)cc2)nn(-c2cccc(F)c2)c1=O)C(O)CO (single isomer, unassigned) [Example 346, 6-(4-chlorophenyl)-N-(3,4-dihydroxybutan-2-yl)-2-(3-fluorophenyl)-3-oxo-2,3-dihydropyridazine-4-carboxamide] | > 2e-05 M | 1.98e-07 M | 
CC(NC(=O)c1cc(-c2ccc(Cl)cc2)nn(-c2cccc(F)c2)c1=O)C(O)CO (single isomer, unassigned) [Example 347, 6-(4-chlorophenyl)-N-(3,4-dihydroxybutan-2-yl)-2-(3-fluorophenyl)-3-oxo-2,3-dihydropyridazine-4-carboxamide] |  | 1.69e-07 M | > 2e-05 M
CC(O)C(NC(=O)c1cc(-c2ccc(C(F)(F)F)cc2)nn(-c2cccc(F)c2)c1=O)C(F)(F)F (single isomer, unassigned) [Example 349, 2-(3-fluorophenyl)-3-oxo-N-(1,1,1-trifluoro-3-hydroxybutan-2-yl)-6-[4-(trifluoromethyl)phenyl]-2,3-dihydropyridazine-4-carboxamide] | > 2e-05 M | 3.54e-09 M | 
CC(O)C(NC(=O)c1cc(-c2ccc(C(F)(F)F)cc2)nn(-c2cccc(F)c2)c1=O)C(F)(F)F (single isomer, unassigned) [Example 350, 2-(3-fluorophenyl)-3-oxo-N-(1,1,1-trifluoro-3-hydroxybutan-2-yl)-6-[4-(trifluoromethyl)phenyl]-2,3-dihydropyridazine-4-carboxamide] |  | 2.08e-07 M | > 2e-05 M
O=C(N[C@@H]1CC[C@@H]1O)c1cc(-c2ccc(Cl)cc2)nn(-c2cccc(F)c2)c1=O (single isomer, unassigned) [Example 358] | > 2e-05 M | 1.15e-07 M | 
